Reference: patent US20240299584A1, “NON-CODING RNA PROTECTING AGAINST HEART FAILURE” (MEDIZINISCHE HOCHSCHULE HANNOVER, priority 2019, published 2024)
Entries after “also recorded” stand apart in the source; their conditions may differ.

What was measured:
[1] = system: HL-1 cells; test: RT-qPCR expression in HL-1 cells; assay type: cell-based, mouse; conditions: for expression of circ-Insr: 24 h, epirubicin 1 and 5 μM, daunorubicin 1.25 and 2.5 μM, paclitaxel 0.1 and 0.5 μM
Description: HL-1 cells were cultured in Claycomb medium together with 10% FBS, norepinephrine, L-Glutamine and pencillin/streptomycin as manufacturer's protocol. 3T3 and RAW264.7 cells were cultured in DMEM with 10% FBS and pencillin/streptomycin. Neonatal rat cardiomyocytes (NRCM) were isolated from one to three-day old rat babies by using the Neonatal Heart Dissociation Kit (Miltenyi). Human iPSC derived cardiomyocytes (hiPSC-cm) were differentiated at the lab of IMTTS. […] NRCM and hipsc-CM were transduced by AAV6 (MOI: 1*10^4) for 72 hours.
(§1) RNA isolation from cell culture and heart tissue was done using Trifast (Peqlab) as per the manufacturer's instructions. Isolated RNA (500 ng-1000 ng) was reversed transcribed with random primer using iScript Select cDNA synthesis kit (Biorad). Real-Time quantative PCR was done with iQ SYBR Green mix (Biorad) on C1000 Touch Thermocycler (Biorad) using specific primer pairs. For amplification of circular RNAs, divergent primers were used while normal linear transcripts were amplified by convergent primers as usual. For RNase R resistant assay RNA was incubated with RNase R (Biozym Scientific) at 37° C. for 10 minutes and heat […] at 95° C. for three minutes. RNA was then reverse transcribed and amplified by specific PCR primers as mentioned before.

[2] = Body weight changes in doxorubicin cardiotoxicity mouse model; assay type: in vivo; conditions: doxorubicin and vehicle treated mice
Description: (§5) The AAV-circINSR construct was packaged into AAV9 and injected adult male mice (12 weeks) with a single dose of 2×10^12 viral genomes/mouse or with the same amount of AAV9-empty control vectors. After two weeks to allow full AAV mediated gene expression, the mice received a cumulative dose of 25 mg/kg/bw doxorubicin over a course of 5 weeks and were sacrificed 1 week later after echocardiography was performed (FIG. 4A).
(§6) C57BL/6 N mice of 8 weeks of age were injected (intraperitoneally) with doxorubicin at a dose of 5 mg/kg once a week for consecutive 5 weeks. One week later after the last doxorubicin treatment, echocardiography data were recorded by an independent blinded researcher using the Vevo 2100 system (Fujifilm Visulasonics, Inc). […] Echocardiography data were analyzed using standard imaging protocols (M-mode and B-mode) for global cardiac volumes and functioning using the Vevostrain software (Fujifilm Visulasonics, Inc). […] AAV9 (adeno-associated virus serotype 9) was injected (intravenously) 2 weeks before first doxorubicin injection. Animal experiments were randomized and blinded with an internal number.

[3] = system: mouse heart; test: RT-qPCR expression analysis in mouse heart tissue; assay type: in vivo
Description: as §1

[4] = system: circulating circINSR; test: circINSR level in mouse plasma; assay type: in vivo; conditions: doxorubicin vs PBS control
Description: NcRNAs can be released into the extra-cellular space through passive mechanisms (e.g. necrosis of cells) or actively within secreted microvesicles^20. Since they can be readily isolated and measured from body fluids such as blood, these circulating ncRNAs have gained much attention as potential biomarkers for various diseases^21, 22. Indeed, ot was possible to detect circINSR in human and murine plasma (FIG. 9A,B). Strikingly, levels of circulating circINSR were diminished in mice treated with doxorubicin, which warrants further investigation of circINSR as a marker for anthracycline-related heart failure. Then the presence of circINSR in exosomes isolated from HL-1 cell culture supernatants was tested. […] To further corroborate the findings, a circINSR knock-out cell line was generated. Using a dual guideRNA CRISPR/Cas9 approach the majority of the circINSR forming exon was excised (FIG. 18A,B). Expectedly, this not only abrogated circINSR expression but also INSR protein expression (FIG. 18C,D). Then this cell line was used to overexpress circINSR via transfection with pcDNA3.1.
RNA isolation from cell culture and heart tissue was done using Trifast (Peqlab) as per the manufacturer's instructions. Isolated RNA (500 ng-1000 ng) was reversed transcribed with random primer using iScript Select cDNA synthesis kit (Biorad). […]

[5] = system: apoptotic cardiomyocytes; test: TUNEL and cardiac troponin T co-staining of heart sections; assay type: in vivo, mouse; conditions: transversal heart sections, doxorubicin model; circINSR given as AAV9
Description: (§2) In addition to apoptosis, doxorubicin is known to cause cardiomyocyte atrophy^12 (G). Thus, histopathology analyses were performed on transversal heart section.
Cells were fixed with 4% paraformaldehyde for twenty minutes at room temperature and then permeabilized with ice-cold 0.1% Triton-X-100 in PBS for two minutes at room temperature. Next cells were incubated with enzyme labelling solution provided with In Situ cell death detection kit (Roche) for 1 hour at 37° C. For negative staining, enzyme was not added to the labelling solution. Cells were then washed and incubated with Dapi for 15 minutes. To specifically label neonatal rat cardiomyocytes and hipsc-CM, cells were co-stained with cardiac Troponin T (Thermofisher) after Tunel staining. Images were taken with Nikon Eclipse Ti microscope and images were analyzed with NIS Elements. For analysis in each case, ten different images were analyzed from different regions and average value was taken. Similarly, cryosections of heart were also processed for staining. Numerous images covering complete heart section was taken and Tunel positive nuclei were counted in each field. Average value for each heart was calculated.

[6] = system: cardiomyocytes; test: Cardiomyocyte size on wheat germ agglutinin stained heart sections; assay type: in vivo, mouse; conditions: WGA stained heart sections, doxorubicin model; circINSR given as AAV9
Description: as §2
Cryosections of heart were stained with Alexa Fluor 488 labelled wheat germ agglutinin (Invitrogen) and dapi. Images were taken with Nikon Eclipse Ti microscope and images were analyzed with NIS Elements. For each heart 5 to 10 images were randomly taken from different regions of the section and minimum two hundred cells were measured and average value was taken for each heart.

[7] = system: HL-1 cells; test: Annexin V & 7-AAD staining (apoptosis); assay type: cell-based, mouse; conditions: HL-1 cells treated with doxorubicin 0.25 μM 48 h
Description: (§3) HL-1 cells were cultured in Claycomb medium together with 10% FBS, norepinephrine, L-Glutamine and pencillin/streptomycin as manufacturer's protocol. 3T3 and RAW264.7 cells were cultured in DMEM with 10% FBS and pencillin/streptomycin. Neonatal rat cardiomyocytes (NRCM) were isolated from one to three-day old rat babies by using the Neonatal Heart Dissociation Kit (Miltenyi). Human iPSC derived cardiomyocytes (hiPSC-cm) were differentiated at the lab of IMTTS. All the cells were treated with 0.25 μM Doxorubicin (Sigma-Aldrich) for 48 hours. circ-Insr siRNA (Eurofins), in vitro circular RNA and overexpression plasmid were transfected with Lipofectamine 2000 (Life Technologies) in OptiMEM medium. NRCM and hipsc-CM were transduced by AAV6 (MOI: 1*10^4) for 72 hours.
FlowCellect Annexin Red kit (Millipore) was used to stain apoptotic cells as per the manufacturer instruction. Briefly, cells were seeded in 12 well plate and next day treated with 0.25 μM Doxorubicin in normal medium with 10% FBS for forty-eight hours. Then cells were trypsinized and harvested and stained with Annexin-V for 15 minutes at 37° C. in 1× assay buffer. Annexin-V stained cells were centrifuged and washed with 1× assay buffer. Next cells were incubated with 7-AAD for 5 minutes and acquired on Guava (Millipore) flow cytometer. Data was analyzed with FLOWJO software.

[8] = system: HL-1 cells; test: WST-1 assay (cell viability); assay type: cell-based, mouse; conditions: HL-1 cells treated with doxorubicin 0.25 μM 48 h
Description: as §3
WST-1 assay was performed using Cell Proliferation Reagent WST-1 (Roche) as per the manufacturer instruction. Briefly, HL-1 cells were seeded in 96 well plate and next day treated with 0.25 μM Doxorubicin in normal medium with 10% FBS for forty-eight hours. Next, 10 μL WST1 reagent was added and incubated for 1 hour followed by the absorbance measurement (450 nm) at HT Synergy (Biotek) plate reader.

[9] = system: HL-1 cells; test: mtDNA copy number measurement; assay type: cell-based, mouse; conditions: doxorubicin 0.25 μM 48 h, circ-Insr by overexpression plasmid
Description: (§4) Based on the results of the foregoing examples, it was reasoned that circ-Insr could interact with SSBP1. To further confirm the interaction between circ-Insr and SSBP1, siRNA mediated circ-Insr knock-down was applied in HL-1 cells. Next, RNA pulldown was performed with circ-Insr and scramble biotinylated probes. RT-qPCR confirmed that decrease of circ-Insr appeared both in input and circ-Insr pulldown group (FIG. 23A). […] Therefore, we assumed that circ-Insr is a cofactor of SSBP1 resulting in the regulation of mitochondrial function in cardiomyocytes by stabilizing mtDNA. […] Furthermore, mito-damage assay was applied to measure the changes in mitochondrial membrane potential (MMP). […] Next, we co-transfected HL-1 cells with pcDNA-circ-Insr and SSBP1 siRNA and examined cell viability using the WST assay to explore whether SSBP1 participated in the circ-Insr overexpression-mediated therapy of doxorubicin-cardiotoxicity. RT-qPCR indicated SSBP1 siRNA could downregulate endogenous SSBP1 expression (FIG. 23G).
The ratio of mtDNA to genomic DNA was calculated by dividing copies of CYTB with copies of ACTB in each experiment (Li J, Chan M C, Yu Y, Bei Y H, Chen P, Zhou Q L, et al. miR-29b contributes to multiple types of muscle atrophy. Nature communications. 2017; 8). […] Fluorescence was measured during the last step of each cycle using the SYBR channel. […]

[10] = system: HL-1 cells; test: Mito-damage assay, mitochondrial membrane potential; assay type: cell-based, mouse; conditions: doxorubicin 0.25 μM 48 h
Description: as §4

[11] = human patients; cited from earlier work
[12] = system: C57BL/6 N mice; test: Echocardiography in mouse model of chronic doxorubicin-induced cardiotoxicity
Description: as §5, §6

[13] = doxorubicin treated mice, in words

Q: For COc1cccc2c1C(=O)c1c(O)c3c(c(O)c1C2=O)C[C@@](O)(C(C)=O)C[C@@H]3O[C@H]1C[C@H](N)[C@H](O)[C@H](C)O1 [daunorubicin], which “expression of circ-Insr” value [1] is on record?
A: significant downregulation

Q: Which results are given for COc1cccc2c1C(=O)c1c(O)c3c(c(O)c1C2=O)C[C@@](O)(C(=O)CO)C[C@@H]3O[C@H]1C[C@H](N)[C@H](O)[C@H](C)O1 [doxorubicin]?
A: body weight [2]: significantly halted the weight gain; Brca1 mRNA expression in hearts ([3]; doxorubicin treated mice vs PBS control): significantly lower levels; circINSR expression in heart ([3]; mouse heart, doxorubicin 5 mg/kg once a week for 5 weeks): significant decrease; also recorded: downregulation; levels of circulating circINSR [4]: diminished; apoptotic cardiomyocytes (TUNEL / cTNT) [5]: strong induction of apoptosis; cardiomyocyte size [6]: atrophic response; apoptotic cells (Annexin V) [7]: increased the number of apoptotic cells; cell viability (WST-1) [8]: significantly diminished; also recorded: impair; circINSR expression ([1]; doxorubicin 0.25 μmol/L 48 h): downregulation; mtDNA copy number / mtDNA content [9]: significantly reduced; mitochondrial membrane potential (MMP) [10]: impair; underlying cause in heart transplantation patients, share of all cases [11]: 2-3%; Fractional Shortening ([12]; Mean, mice with doxorubicin, cumulative 25 mg/kg over 5 weeks): significant reduction; left ventricular anterior and posterior wall thickness [12, 13]: decreased; left ventricular volume [12, 13]: increased

Q: Which “expression of circ-Insr” value [1] does the source give for COc1cccc2c1C(=O)c1c(O)c3c(c(O)c1C2=O)C[C@@](O)(C(=O)CO)C[C@@H]3O[C@H]1C[C@H](N)[C@@H](O)[C@H](C)O1 [epirubicin] here?
A: significant downregulation

Q: Which “expression of circ-Insr” value [1] does the source give for CC(=O)O[C@H]1C(=O)[C@@]2(C)[C@H]([C@H](OC(=O)c3ccccc3)[C@]3(O)C[C@H](OC(=O)[C@H](O)[C@@H](NC(=O)c4ccccc4)c4ccccc4)C(C)=C1C3(C)C)[C@]1(OC(C)=O)CO[C@@H]1C[C@@H]2O [paclitaxel] here?
A: no change
